Consider 7 molecules from US8623883B2, “4-phenylamino-quinazolin-6-yl-amides” (Warner-Lambert Company LLC, priority 2004, dated 2014).

Molecules are shown by their SMILES. pIC50: −log10 of the molar value. In brackets after ≈: the same amount, converted by molar mass.

Data set [1] in a line: Aqueous solubility. Type of data set: physicochemical.
Data set [2] concerns the target ErbB4 (Homo sapiens, UniProt Q15303). Put plainly: ELISA-based erbB kinase assay (ErbB4). To be noted: GST-erbB4 cytoplasmic fusion protein, 20 uM ATP, poly-Glu-Tyr substrate. In kind it is biochemical. The text has this: (§1) ErbB1, erbB2 and erbB4 cytoplasmic fusion proteins were made by cloning the erbB1 sequence (Met-668 to Ala1211), erbB2 (Ile-675 to Val-1256) and erbB4 sequence (Gly-259 to Gly-690) into the baculoviral vector pFastBac using Polymerase Chain Reaction (PCR). Proteins were expressed in Baculovirus-infected Sf9 insect cells as Glutathione S-Transferase (GST) fusion proteins. The proteins were purified by affinity chromatography using glutathione sepharose beads.
(§2) Inhibition of erbB tyrosine kinase activity was assessed using an ELISA-based receptor tyrosine kinase assay. Kinase reactions (50 mM HEPES, pH 7.4, 125 mM NaCl, 10 mM MgCl2, 100 μM sodium orthovanadate, 2 mM dithiothreitol, 20 uM ATP, test compound or vehicle control and 1-5 nM GST-erbB per 50 uL reaction) were run in 96-well plates coated with 0.25 mg/ml poly-Glu-Tyr (Sigma). The reactions were incubated for 6 minutes at room temperature while shaking. Kinase reactions were stopped by removal of reaction mixture, then wells were washed with wash buffer comprising 3% Bovine Serum Albumin and 0.1% Tween 20 in Phosphate Buffered Saline (PBS). Phosphorylated tyrosine residues were detected by adding 0.2 μg/ml anti-phosphotyrosine antibody (Oncogene Ab-4; 50 μL/well) coupled to Horse Radish Peroxidase (HRP) for 25 minutes while shaking at room temperature. The antibody was removed, and plates were washed (3% BSA and 0.1% Tween 20 in PBS). HRP substrate 3,3′,5,5′-tetramethylbenzidene (SureBlueTMB, Kirkegaard & Perry Labs) was added (50 μL per well) and incubated for 10-20 minutes while shaking at room temperature. The TMB reaction was stopped with the addition of 50 μL stop solution (0.09 N H2SO4). The signal was quantified by measuring absorbance at 450 nm. IC50 values were determined for test compounds using Microsoft Excel.
(In general: In an ELISA, binding on a coated surface is turned into a signal by an enzyme label.)

The target in data set [3] is ErbB1 (Homo sapiens (Human), UniProt P00533). Put plainly: ELISA-based erbB kinase assay (ErbB1). In kind it is biochemical. The conditions noted are these: GST-erbB1 cytoplasmic fusion protein, 20 uM ATP, poly-Glu-Tyr substrate.
Sequence of ErbB1 (P00533 668-1210 limits assumed): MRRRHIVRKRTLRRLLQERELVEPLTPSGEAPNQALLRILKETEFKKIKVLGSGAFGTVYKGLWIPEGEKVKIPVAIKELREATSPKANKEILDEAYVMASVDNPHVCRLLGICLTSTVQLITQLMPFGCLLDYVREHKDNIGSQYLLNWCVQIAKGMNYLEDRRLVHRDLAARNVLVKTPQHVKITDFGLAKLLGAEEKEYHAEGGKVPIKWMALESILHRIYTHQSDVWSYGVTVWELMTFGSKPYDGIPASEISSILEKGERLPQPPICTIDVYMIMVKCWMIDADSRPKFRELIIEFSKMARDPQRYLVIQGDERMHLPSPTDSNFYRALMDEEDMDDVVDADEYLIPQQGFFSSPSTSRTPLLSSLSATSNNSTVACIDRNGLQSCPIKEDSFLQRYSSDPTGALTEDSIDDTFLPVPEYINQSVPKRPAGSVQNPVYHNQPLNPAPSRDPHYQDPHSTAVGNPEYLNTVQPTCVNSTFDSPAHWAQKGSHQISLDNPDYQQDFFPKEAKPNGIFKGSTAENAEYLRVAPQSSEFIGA
Excerpt: as §1, §2

Data set [4] deals with ErbB2 (Homo sapiens (Human), UniProt P04626). Put plainly: ELISA-based erbB kinase assay (ErbB2). Type of data set: biochemical. The conditions noted are these: GST-erbB2 cytoplasmic fusion protein, 20 uM ATP, poly-Glu-Tyr substrate.
Sequence of ErbB2 (P04626 675-1255 limits assumed): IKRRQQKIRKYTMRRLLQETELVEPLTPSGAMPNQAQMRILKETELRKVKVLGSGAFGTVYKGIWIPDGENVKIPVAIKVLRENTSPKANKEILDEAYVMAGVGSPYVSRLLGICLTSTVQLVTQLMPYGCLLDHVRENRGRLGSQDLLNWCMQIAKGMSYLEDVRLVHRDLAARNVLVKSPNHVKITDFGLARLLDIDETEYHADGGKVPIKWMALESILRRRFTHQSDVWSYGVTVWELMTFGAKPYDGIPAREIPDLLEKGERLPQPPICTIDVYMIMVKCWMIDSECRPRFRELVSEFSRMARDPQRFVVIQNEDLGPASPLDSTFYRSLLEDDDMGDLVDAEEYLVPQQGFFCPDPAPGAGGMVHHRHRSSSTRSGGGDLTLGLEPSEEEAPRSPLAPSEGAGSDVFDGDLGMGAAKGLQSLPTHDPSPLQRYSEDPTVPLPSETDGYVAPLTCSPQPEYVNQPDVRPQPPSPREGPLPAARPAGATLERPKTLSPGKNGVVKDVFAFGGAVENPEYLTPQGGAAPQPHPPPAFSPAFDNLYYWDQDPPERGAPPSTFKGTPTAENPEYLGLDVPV
Excerpt: as §1, §2

Sequence of ErbB4 (Q15303 26-1308 limits assumed): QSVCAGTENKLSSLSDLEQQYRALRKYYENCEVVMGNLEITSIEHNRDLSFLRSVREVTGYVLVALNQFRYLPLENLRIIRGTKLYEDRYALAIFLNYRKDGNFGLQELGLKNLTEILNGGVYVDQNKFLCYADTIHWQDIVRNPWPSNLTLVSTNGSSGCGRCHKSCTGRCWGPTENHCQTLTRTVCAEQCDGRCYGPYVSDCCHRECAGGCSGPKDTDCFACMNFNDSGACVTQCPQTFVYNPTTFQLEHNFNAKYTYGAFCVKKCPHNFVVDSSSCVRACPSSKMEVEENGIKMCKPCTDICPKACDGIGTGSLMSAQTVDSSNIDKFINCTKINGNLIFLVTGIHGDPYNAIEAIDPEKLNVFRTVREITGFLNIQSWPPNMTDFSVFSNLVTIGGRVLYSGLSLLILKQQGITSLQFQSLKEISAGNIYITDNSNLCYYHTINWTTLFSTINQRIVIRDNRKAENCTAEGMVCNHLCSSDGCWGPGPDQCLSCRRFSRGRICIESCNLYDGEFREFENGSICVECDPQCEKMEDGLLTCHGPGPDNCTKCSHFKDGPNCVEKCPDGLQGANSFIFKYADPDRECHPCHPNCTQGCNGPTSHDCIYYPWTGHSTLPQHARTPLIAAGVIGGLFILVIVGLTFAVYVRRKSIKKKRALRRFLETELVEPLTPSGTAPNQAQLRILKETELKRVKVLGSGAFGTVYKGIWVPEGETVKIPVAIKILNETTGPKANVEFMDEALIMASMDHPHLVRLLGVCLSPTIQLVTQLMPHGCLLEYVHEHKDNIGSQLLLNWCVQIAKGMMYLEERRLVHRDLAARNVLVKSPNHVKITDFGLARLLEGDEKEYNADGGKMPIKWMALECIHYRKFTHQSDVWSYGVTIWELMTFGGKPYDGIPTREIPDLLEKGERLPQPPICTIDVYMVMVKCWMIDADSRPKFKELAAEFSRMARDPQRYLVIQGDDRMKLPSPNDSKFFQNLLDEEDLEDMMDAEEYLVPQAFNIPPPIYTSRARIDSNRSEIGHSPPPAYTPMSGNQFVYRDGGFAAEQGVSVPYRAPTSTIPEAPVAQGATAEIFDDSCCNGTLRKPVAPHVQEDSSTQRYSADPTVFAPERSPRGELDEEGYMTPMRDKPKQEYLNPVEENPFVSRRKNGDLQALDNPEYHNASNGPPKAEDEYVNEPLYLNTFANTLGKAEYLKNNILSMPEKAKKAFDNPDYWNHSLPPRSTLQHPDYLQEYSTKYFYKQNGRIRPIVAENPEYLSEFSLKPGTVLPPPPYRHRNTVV

The solubility is the dissolved amount per volume that the medium holds. Turning to `COc1cc2ncnc(Nc3ccc(F)c(Cl)c3)c2cc1NC(=O)/C=C/CN1CCCCC1` [Example No. 2, 4-Piperidin-1-yl-but-2-enoic acid [4-(3-chloro-4-fluoro-phenylamino)-7-methoxy-quinazolin-6-yl]-amide], in data set [1] (aqueous medium, pH 6.3, aqueous buffer), the solubility was around 10 µg/mL (≈ 21.3 µM). In data set [1] (at lower pHs (than 6.3)), the “change of aqueous solubility with pH” value was “increases”.

The pIC50 is the negative decadic logarithm of the IC50, by convention in mol/L. A low value points to a large IC50. `COc1cc2ncnc(Nc3ccc(F)c(Cl)c3)c2cc1NC(=O)/C=C/CN1CCCCCC1` [Example No. 10, 4-Azepan-1-yl-but-2-enoic acid [4-(3-chloro-4-fluoro-phenylamino)-7-methoxy-quinazolin-6-yl]-amide]: the pIC50 in data set [2] was 7.38; in data set [3], 7.92; in data set [4], 7.07.

As to `O=C(/C=C/CN1CCCCC1)Nc1cc2c(Nc3ccc(F)c(Cl)c3)ncnc2cc1OCC(F)F` [Example No. 6, 4-Piperidine-1-yl-but-2-enoic acid [4-(3-chloro-4-fluoro-phenylamino)-7-(2,2-difluoro-ethoxy)-quinazolin-6-yl]-amide], the pIC50 in data set [2] is 6.81; in data set [3], 8.01; in data set [4] it was 6.61.

For the molecule `O=C(/C=C/CN1CCCCC1)Nc1cc2c(Nc3ccc(F)c(Cl)c3)ncnc2cc1OCCF` [Example No. 1, 4-Piperidin-1-yl-but-2-enoic acid [4-(3-chloro-4-fluoro-phenylamino)-7-(2-fluoro-ethoxy)-quinazolin-6-yl]-amide], the figures for the pIC50 in data set [2] and in data set [3] were 7.11 and 8.19, respectively.

In the case of `O=C(/C=C/CN1CCCCC1)Nc1cc2c(Nc3ccc(F)c(Cl)c3)ncnc2cc1OCCCN1CCOCC1` [Example No. 7, 4-Piperidin-1-yl-but-2-enoic acid [4-(3-chloro-4-fluoro-phenylamino)-7-(3-morpholin-4-yl-propoxy)-quinazolin-6-yl]-amide], the pIC50 was 7.21 in data set [2] and 7.95 in data set [3].

Consider `COc1cc2ncnc(Nc3ccc(F)c(Cl)c3)c2cc1NC(=O)/C=C/CN1CCCC(F)C1` (centres unmarked) [Example No. 8, 4-(3-Fluoro-piperidin-1-yl)-but-2-enoic acid [4-(3-chloro-4-fluoro-phenylamino)-7-methoxy-Quinazolin-6-yl]-amide], for which the values for the pIC50 in data set [2], in data set [3] and in data set [4] were 6.63, 7.34 and 6.67, respectively.

On to `COc1cc2ncnc(Nc3ccc(F)c(Cl)c3)c2cc1NC(=O)/C=C/CN1CCC(F)CC1` [Example No. 9, 4-(4-Fluoro-piperidin-1-yl)-but-2-enoic acid [4-(3-chloro-4-fluoro-phenylamino)-7-methoxy-quinazolin-6-yl]-amide], for which the pIC50 in data set [2] is 6.83; in data set [4] it was 6.61.
